The target of data set [1] is T1, beta-adrenergic sensitive adenylate cyclase present in mammalian choroid plexus (Felis catus, UniProt Q9TST5).
T1 construct: are prepared from the various tissues to be studied (e.g., ciliary process, choroid plexus, heart or lung); from tissue; host or cells: choroid plexus (homogenate or washed particulate)
The data set is described as follows: Choroid plexus adenylate cyclase activity. Type of data set: biochemical.

In data set [2] the target is heart adenylate cyclase. Description: Heart adenylate cyclase activation and inhibition. Type of data set: biochemical, mammalian. Particulars: antagonists; Table I; ** data from the present inventor, method (a); read-out: Adenylate Cyclase Ki, Heart (G).
The target in data set [3] is T2, rabbit ciliary process adenylate cyclase (Oryctolagus cuniculus, UniProt G1TAV7).
T2 construct: After isolation of the ciliary process, adenylate cyclase activity was measured; from tissue; host or cells: rabbit ciliary process
T2 sequence (G1TAV7 1-437): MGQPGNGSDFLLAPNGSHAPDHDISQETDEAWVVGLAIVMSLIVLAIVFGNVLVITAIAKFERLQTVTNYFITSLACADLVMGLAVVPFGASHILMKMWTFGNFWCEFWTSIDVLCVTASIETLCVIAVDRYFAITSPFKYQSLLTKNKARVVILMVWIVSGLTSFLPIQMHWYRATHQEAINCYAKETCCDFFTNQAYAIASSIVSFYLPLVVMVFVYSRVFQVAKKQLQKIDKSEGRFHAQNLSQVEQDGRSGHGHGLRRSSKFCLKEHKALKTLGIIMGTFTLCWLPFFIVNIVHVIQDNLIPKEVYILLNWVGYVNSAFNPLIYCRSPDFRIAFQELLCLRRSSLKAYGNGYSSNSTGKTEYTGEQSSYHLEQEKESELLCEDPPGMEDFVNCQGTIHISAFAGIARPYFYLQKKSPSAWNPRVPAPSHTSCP
Description: Rabbit ciliary process beta-adrenergic sensitive adenylate cyclase activity. Type of data set: biochemical. Particulars: for Ki: antagonists, inhibition of isoproterenol-stimulated activity, Table I, read-out: Adenylate Cyclase Ki, Ciliary Process Rabbit (B).

Data set [4] relates to rabbit ciliary process adenylate cyclase. The description is as above. The conditions noted are these: Table I columns B (rabbit ciliary process) and G. Type of data set: biochemical.
Data set [5] concerns the target beta1 -adrenergic receptor present in mammalian heart. Particulars: Table I; Minneman et al; read-out: Kd for IHYP Binding, Heart (E); cited from earlier work.
Data set [6] has as its target T3, heart adenylate cyclase (Rattus norvegicus, UniProt P18090).
T3 construct: are prepared from the various tissues to be studied (e.g., ciliary process, choroid plexus, heart or lung); from tissue; host or cells: heart (homogenate or washed particulate)
The conditions noted are these: agonists; Table I; Minneman et al; NE = no effect as agonist; cited from earlier work.

Data set [7] addresses T4, human ciliary process beta-adrenergic receptors (Homo sapiens, UniProt P07550).
T4 construct: ciliary process from human donor eyes was assayed biochemically; from tissue; host or cells: ciliary process from human donor eyes
The data set is described as follows: biochemical.

The test system of data set [8] is cardioacceleratory effect of isoproterenol. Particulars: subcutaneous antagonist 30 minutes before 3 micrograms/kg subcutaneous isoproterenol; rabbits.
Data set [9] has as its system intraocular pressure in rabbit eyes.
The test system of data set [10] is intraocular pressure above normal. Description: Alpha chymotrypsin-induced glaucoma in rabbits. Type of data set: in vivo, rabbit. Particulars: compared with timolol. The text has this: This effect is also observed under conditions of elevated pressure.
The test system of data set [11] is ciliary body adenylate cyclase. The data set is described as follows: Ciliary body adenylate cyclase stimulation. Format: biochemical. The text has this: (§1) The discovery that the ciliary process of the mammalian eye contains β2 -adrenergic receptors is based on the technique of measuring adenylate cyclase, an enzyme which synthesizes cyclic AMP from ATP. It has been established that receptor binding of beta adrenergic agonists is associated with a concomitant activation of adenylate cyclase. (Robison, G. A., et al, Cyclic AMP, Academic Press, New York, 1971, and Wolfe, B. B., et al, Annual Reviews of Pharmacology and Toxicology, 17:575-604 (1977)). […] Beta adrenergic sensitive adenylate cyclase activity was thus identified and characterized in the ocular tissues of several mammalian species such as rabbits, cats, dogs, monkeys and humans. After isolation of the ciliary process, adenylate cyclase activity was measured, and its activation by agonists or inhibition by antagonists was measured. […].
(§2) For ciliary body, maximal stimulation was 15% of the stimulation seen in the ciliary process, and for iris, maximal stimulation was 22% for that seen in the ciliary process. […];

Another data set deals with iris adenylate cyclase. Description: Iris adenylate cyclase stimulation. Type of data set: biochemical.
Text: as §1, §2

[12] abbreviates: antagonists, Table I, read-out: Adenylate Cyclase Ki, Choroid Plexus (C).
Setting [13] is: 0.5% topical to ipsilateral eye.
The mark [14] stands for this setting: 0.5% topical, two 50 microliter doses, 2 and 3 hours after application.

Counter-ions that a name gives are not always drawn. Like-named read-outs stand apart in the source and are kept apart here.

The source of these data is US4469706A, “Selective beta-2 adrenergic antagonists for the treatment of glaucoma” (priority 1982, dated 1984).

T4 sequence (P07550 whole entry): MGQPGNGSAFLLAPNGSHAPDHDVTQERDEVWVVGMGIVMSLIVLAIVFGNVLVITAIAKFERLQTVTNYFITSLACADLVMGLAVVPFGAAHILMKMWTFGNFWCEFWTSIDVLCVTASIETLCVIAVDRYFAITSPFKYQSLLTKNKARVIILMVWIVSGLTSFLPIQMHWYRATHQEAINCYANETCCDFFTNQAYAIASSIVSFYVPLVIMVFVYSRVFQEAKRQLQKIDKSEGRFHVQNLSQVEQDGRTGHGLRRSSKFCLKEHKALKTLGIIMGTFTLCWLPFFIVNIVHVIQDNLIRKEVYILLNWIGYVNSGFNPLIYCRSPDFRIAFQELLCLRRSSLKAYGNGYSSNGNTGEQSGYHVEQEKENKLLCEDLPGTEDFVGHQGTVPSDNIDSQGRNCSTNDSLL
T1 sequence (Q9TST5 whole entry): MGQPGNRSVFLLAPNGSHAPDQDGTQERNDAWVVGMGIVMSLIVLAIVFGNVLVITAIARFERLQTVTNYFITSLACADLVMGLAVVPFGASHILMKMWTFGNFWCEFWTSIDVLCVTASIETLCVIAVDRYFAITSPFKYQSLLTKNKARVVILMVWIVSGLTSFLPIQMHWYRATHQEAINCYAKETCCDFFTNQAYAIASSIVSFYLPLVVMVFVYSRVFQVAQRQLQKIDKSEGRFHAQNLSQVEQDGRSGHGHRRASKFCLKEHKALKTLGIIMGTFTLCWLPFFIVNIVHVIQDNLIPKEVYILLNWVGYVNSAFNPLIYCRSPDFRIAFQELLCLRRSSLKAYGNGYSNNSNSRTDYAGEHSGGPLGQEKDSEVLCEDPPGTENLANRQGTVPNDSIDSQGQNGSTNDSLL
T3 sequence (P18090 whole entry): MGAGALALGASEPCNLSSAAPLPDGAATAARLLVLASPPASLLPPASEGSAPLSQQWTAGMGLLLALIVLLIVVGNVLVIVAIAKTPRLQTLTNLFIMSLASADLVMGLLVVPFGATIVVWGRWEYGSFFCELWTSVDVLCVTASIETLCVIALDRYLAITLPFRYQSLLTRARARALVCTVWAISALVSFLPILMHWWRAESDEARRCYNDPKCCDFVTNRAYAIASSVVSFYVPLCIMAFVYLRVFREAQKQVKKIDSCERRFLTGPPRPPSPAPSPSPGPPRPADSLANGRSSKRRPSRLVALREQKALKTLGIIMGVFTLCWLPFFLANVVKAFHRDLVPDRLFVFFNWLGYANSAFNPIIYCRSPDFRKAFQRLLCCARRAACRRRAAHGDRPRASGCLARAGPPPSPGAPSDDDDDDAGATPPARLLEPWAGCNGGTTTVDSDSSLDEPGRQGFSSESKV

Consider `CC(C)NCC(O)COc1ccc(CC(N)=O)cc1` (stereo not drawn) [Atenolol, atenolol], for which the inhibitory constant (Ki) in [1] (setting [12]) came out at 5.8 µM; on heart adenylate cyclase [2], 2.7 µM; in data set [3] it was 21 µM.

For `COc1ccc(OC)c(C(O)C(C)NC(C)(C)C)c1` (stereo not drawn) [Butoxamine], the figures for the inhibitory constant (Ki) (in [1] (setting [12]); on heart adenylate cyclase [2]; in [3]) were 1.5 µM, 15 µM and 1.53 µM, respectively. Besides, in [4], the “β2/β1 potency ratio (Ki heart/Ki ciliary process)” value came out at 9.8. Also, in data set [5], the Kd is 7.03 µM.

On to `CNC[C@H](O)c1ccc(O)c(O)c1` [Epinephrine], for which, at heart adenylate cyclase [6], the “Adenylate Cyclase Ka, Heart (G)” value is 1.5 µM. For the same compound, the EC50 in data set [1] came to 1.55 µM; in data set [3] it was 2.4 µM.

In the case of `Cc1ccc(C(O)C(C)NC(C)C)cc1` (stereo not drawn) [H35/25, 1(4'-methylphenyl)-2-isopropyl amino propanol], the Ki is 0.14 µM in data set [1]; 0.74 µM in [7] (antagonists, inhibition of isoproterenol-stimulated activity, Table I column A, read-out: Adenylate Cyclase Ki, Ciliary Process Human (A)); 0.74 µM in [7] (human ciliary process, Table 3, read-out: Ki for Isoproterenol-Stimulated Adenylate Cyclase); 0.74 µM in data set [7] (inhibition of isoproterenol stimulation of human ciliary process adenylate cyclase, read-out: calculated inhibitory constant (Ki)); 0.7 µM in data set [3]. Besides, in [7] (human ciliary process, Table 3), the “beta2/beta1 Potency Ratio” value was 8.8.

In the case of `Cc1ccc(OCC(O)C(C)NC(C)C)c2c1CCC2` (stereo not drawn) [ICI 118,551], in data set [8], the “IC50 for blocking isoproterenol-induced increase in heart rate” value amounted to 140 micrograms/kg. The Ki at heart adenylate cyclase [2] amounted to 1.76 µM; in data set [3], 0.003 µM. Further, the Ocular irritative effects result in data set [9] (rabbit, in vivo) is recorded as “little ocular irritative effects”. In addition, the “Decrease in intraocular pressure compared with timolol” value in [9] (topical 50 μl of a 1% solution, 6 hours, N=12 double blind crossover) is “both a greater decrease as well as a more prolonged decrease in intraocular pressure than did timolol”.

`CC(C)(C)NCC(O)CON=C1c2ccccc2-c2ccccc21` (stereo not drawn) [IPS 339, (t-butyl-amino 3-ol-2-propyl) oximino-9 fluorene, hydrochloride]: the figures for the inhibition constant (Ki) (in [1]; at heart adenylate cyclase [2]) were 0.0019 µM and 1.12 µM, respectively. The “Change of IOP in the contralateral eye” value in data set [9] (setting [13]) is given as “significant decrease in IOP in the contralateral eye”. The “Magnitude of contralateral IOP effect compared with timolol” value in data set [9] (setting [13]) is recorded as “somewhat less for IPS 339 than for timolol”. Further, the “Change of IOP in ipsilateral eyes compared to predrug readings” value in data set [9] (setting [14]) is listed as “significant decrease in IOP in ipsilateral eyes”. Also, in [9] (0.5% topical, at 3 hours), the “Extent of IOP decrease compared with timolol” value is “significantly more than that caused by timolol”. Moreover, the “Pupillary diameter and overt ocular toxicity” value in data set [9] (rabbit, in vivo) is “no significant changes in pupillary diameter nor overt ocular toxicity”. Further, the “Intraocular pressure above normal” value in data set [10] is “decreased significantly”. In data set [5], the dissociation constant (Kd) was 0.01 µM.

In data set [1], `CC(C)NCC(O)c1ccc(O)c(O)c1` (stereo not drawn) [Isoproterenol] showed an EC50 of 0.14 µM. For the same compound, the “Maximal stimulation, of the stimulation seen in the ciliary process” value in data set [11] was 15%. For the same compound, the “Maximal stimulation, of that seen in the ciliary process” value with iris adenylate cyclase came out at 22%.

Regarding `NC[C@H](O)c1ccc(O)c(O)c1` [Norepinephrine], the EC50 in data set [1] (agonists, Table I, read-out: Adenylate Cyclase Ka, Choroid Plexus (C)) came to 25 µM; in data set [3], 29 µM. In addition, in [5], the Kd is 0.82 µM.

Take `CC(=O)Nc1ccc(OCC(O)CNC(C)C)cc1` (stereo not drawn) [Practolol, practolol]: the inhibitory constant (Ki) turned out to be 8.9 µM in [1] (setting [12]), 5.5 µM on heart adenylate cyclase [2] and 39 µM in data set [3]. In addition, the Kd in data set [5] was 1.1 µM.

For `CC(C)(C)NC[C@H](O)COc1nsnc1N1CCOCC1` [Timolol, timolol], the “IC50 for blocking isoproterenol-induced increase in heart rate” value in data set [8] turned out to be 2.2 micrograms/kg. In addition, the inhibition constant (Ki) on heart adenylate cyclase [2] was 0.02 µM; in data set [3] it was 0.0064 µM. For the same compound, the “Change of IOP in the contralateral eye” value in [9] (setting [13]) is “significant decrease in IOP in the contralateral eye”. Further, the “Change of IOP in ipsilateral eyes compared to predrug readings” value was “significant decrease in IOP in ipsilateral eyes” in data set [9] (setting [14]) and “also caused a significant decrease at 1 hour” in data set [9] (0.5% topical, 1 hour after application). The “Pupillary diameter and overt ocular toxicity” value in data set [9] (rabbit, in vivo) is given as “no significant changes in pupillary diameter nor overt ocular toxicity”.
